Test results from article PMC10307035, “Antiviral activity of singlet oxygen-photogenerating perylene compounds against SARS-CoV-2: Interaction with the viral envelope and photodynamic virion inactivation” (Virus Research, 2023).

Legend:
[1] = tested on: SARS-CoV-2 (Wuhan strain); experiment: Viral titer inhibition assay, SARS-CoV-2 in CaCo-2 cells; type: cell-based; details: 0–10 µM
[2] = ROS generation measurement with DMA trap in DMSO; type: physicochemical
Procedure: ROS generation was also estimated using 9,10-dimethylanthracene (DMA), another specific fluorescent singlet oxygen trap, which forms nonfluorescent 9,10-dimethylanthracene endoperoxide after ROS-mediated DMA oxidation. Compounds (0, 0.1, 1, and 10 µM) in DMSO were mixed with DMA (0.5 µM), and these solutions were irradiated for 10 min at room temperature (RT) with light-emitting diodes (LED, 465–480 nm) having approximate power density of 30 mW/cm^2 (device description in Fig. S7). DMA fluorescence intensity was measured at ex/em wavelengths of 370/432 nm in the presence or absence of α-tocopherol (3 µg/mL) as an antioxidant. Singlet oxygen generation was accompanied by a decreased fluorescence signal of the DMA probe ([Zeng et al., 2020]).

[3] = Spectrofluorometric analysis of interaction with liposomes; type: physicochemical; details: 10 µM in PBS
[4] = tested on: CRFK cells; experiment: Cytotoxicity assay (Cell Counting Kit-8) in CRFK cells; type: cell-based, Felis catus; details: up to 10 µM
Procedure: To determine the overall cytotoxicity of the tested compounds, Vero cells were cultured for 24 h in 96-well plates to form a confluent monolayer, and then were treated with the tested compounds at concentrations of 2 and 10 µM. After 48 h of cultivation in the dark at 37 °C under 5% CO2, the cell culture medium was aspirated. The potential cytotoxicity of the tested perylene derivatives was determined based on cell viability using Cell Counting Kit-8 (Dojindo Molecular Technologies, Munich, Germany) according to the manufacturer's instructions. The cell viabilities of compound-treated Vero cells were compared with those of control DMSO-treated cells. We also used the above-described protocol to assess the cytotoxicity of the selected perylene antivirals, at concentrations ranging from 0 to 10 µM, in CaCo-2 and CRFK cells.

[5] = tested on: Vero cells; experiment: Light-induced cytotoxicity in Vero cells; type: cell-based, African Green Monkey; details: 0–10 µM, 465–480 nm 10 min, then 24 h in the dark
Procedure: To determine the light-induced cytotoxicity of the tested compounds, Vero cells were cultured for 24 h in 96-well plates to form a confluent monolayer, and then were treated with the tested compounds at concentrations of 0 to 10 µM. Then, the compound-treated cells were irradiated for 10 min at RT with LEDs (465–480 nm) having an approximate power density of 30 mW/cm^2 (device description in Fig. S7). As a negative control, compound-treated cells were incubated for 10 min in the dark at RT. Subsequently, both irradiated and non-irradiated cell monolayers were incubated in the dark at 37 °C for 24 h. Then, the cell culture medium was aspirated and the potential cytotoxicity of the tested perylene derivatives was determined based on cell viability using Cell Counting Kit-8 (Dojindo Molecular Technologies, Munich, Germany) according to the manufacturer's instructions.

[6] = tested on: SARS-CoV-2; experiment: Photodynamic inactivation of SARS-CoV-2 virions; type: cell-based
Procedure: Virus in DMEM (titer of 10^5 PFU/mL) was mixed with the compounds (0–10 µM) in a microtiter plate, in triplicate, and irradiated for 10 min at RT with LEDs (465–480 nm) having an approximate power density of 30 mW/cm^2 (device description in supplement). As a negative control, virus was incubated for 10 min in the dark at RT. Subsequently, both irradiated and non-irradiated virus samples were incubated in the dark at 37 °C for 60 min. All manipulation with the samples before and after this incubation, i.e., mixing the compound with the virus, pipetting into a microtiter plate, etc., were performed in daylight. Viral titers were determined by plaque assays (performed also in daylight) and expressed as PFU/mL, as previously described ([Stefanik et al., 2021]). To eliminate the influence of daylight on compound activity, the whole experiment, including all manipulation with samples, was performed in a dark room under red light. The virus sample was mixed with the indicated compounds at concentrations from 0 to 10 μM or 100 μM, incubated for 60 min at 37 °C and virus viability was evaluated using a plaque assay (Fig. 9A).

## CC(C)(C)C(=O)OCn1c(=O)c(C#Cc2ccc3c4cccc5cccc(c6cccc2c63)c54)cn(CC(=O)N(CCO)CCO)c1=O [Compound 13]
[1]
  anti-SARS-CoV-2 activity in CaCo-2 cells: sub-micromolar
[2]; 465–480 nm, 30 mW/cm^2, 10 min
  ROS generation, DMA trap, under blue light: significant bleaching
[2]; 10 min, dark or α-tocopherol (3 µg/mL)
  ROS generation, DMA trap, in the dark or with α-tocopherol: no/limited bleaching
[3]; EPC/Chol 70/30 mol% liposomes
  penetration into liposomal membranes (in words): penetrated the liposomal membranes very quickly and efficiently
[3]; at 520 nm, after 1400 s
  steady-state fluorescence signal after mixing with liposomes: about 10^5 CPS
[4]
  tolerability by CRFK cells: well-tolerated
[5]
  effect of blue light irradiation on cytotoxicity: dramatically increased
[6]; 100 µM, dark room, red light, 60 min at 37 °C
  antiviral effect under red light only: no antiviral effect
[6]; 465–480 nm, 30 mW/cm^2, 10 min, then 60 min at 37 °C in the dark, plaque assay
  antiviral activity after blue light irradiation of virus-compound mixture: low-nanomolar
[6]; up to 10 µM, dark room, red light, 60 min at 37 °C
  antiviral activity under red light only: completely disappeared
